According to article PMC9060465 (Proceedings of the National Academy of Sciences of the …, 2022):

What was measured:
[1] = molecular target: T1, human GIPR (Homo sapiens, UniProt P48546); experiment: GIPR low density cAMP accumulation in HEK293 cells; assay type: cell-based
T1 construct: expressed in transfected cells; host or cells: HEK293
T1 sequence (P48546 22-466): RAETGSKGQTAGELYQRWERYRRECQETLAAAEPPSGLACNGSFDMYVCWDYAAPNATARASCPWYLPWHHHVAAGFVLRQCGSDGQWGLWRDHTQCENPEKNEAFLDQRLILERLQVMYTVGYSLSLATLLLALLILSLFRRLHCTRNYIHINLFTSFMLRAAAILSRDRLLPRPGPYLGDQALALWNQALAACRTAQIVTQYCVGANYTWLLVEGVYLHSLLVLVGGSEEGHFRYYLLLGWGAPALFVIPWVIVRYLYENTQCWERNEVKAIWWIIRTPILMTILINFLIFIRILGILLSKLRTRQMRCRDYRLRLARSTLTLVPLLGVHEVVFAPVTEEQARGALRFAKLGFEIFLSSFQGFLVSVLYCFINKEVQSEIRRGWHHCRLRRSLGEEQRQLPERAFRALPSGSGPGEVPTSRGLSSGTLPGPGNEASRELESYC
Description: Fig. 4. […] (B) Ligand-induced GTPγS binding of Gαs was performed using the GIPR-expressing membranes. […] (C) Agonist-stimulated cAMP production was measured in human GIPR expressing HEK293 cells. […] (E) Ligand-induced GTPγS binding of Gαs was performed using the GLP-1R-expressing membranes. […] (F) Agonist-stimulated cAMP production was measured in human GLP-1R-expressing HEK293 cells. […] Data presented are representative of n ≥ 3 independent experiments. Summarized data are shown in SI Appendix, Table 2. log M; log Molar.
We note that the albumin-binding propensity of fatty acid-modified peptides can confound a pharmacological comparison of molecules, given the common use of albumin and serum as nonspecific blocking agents in biological assays. Therefore, to obviate this, entirely albumin-free assays supplemented with bovine casein or bacitracin were used to prevent nonspecific binding ([10]).
Functional potency (EC50)
and efficacy (% Top) of ligands to induce Gα s -GTPγS binding and cAMP accumulation in HEK293 cells expressing GIPR were determined. The equilibrium affinity (KD) of
ligands for the immobilized ectodomain of the GIPR were quantified by surface plasmon resonance. […]
SPR data were analyzed using T200 evaluation software (Cytiva). All data are presented as geometric means with SEM and n values
(§1) according to established practices. ND, not determined. NA, not applicable.

[2] = molecular target: T2, ECD of human GLP-1R (amino acids 24 to 145) (Homo sapiens, UniProt P43220); experiment: GLP-1R extracellular domain binding by surface plasmon resonance
T2 construct: GLP-1R (amino acids 24 to 145); 6His; made in house; host or cells: CHO cells
From the text: DNA encoding each protein was transfected into CHO cells for expression. After expression, the proteins were purified by affinity chromatography (HIS-Trap Ni, Cytiva) followed by size exclusion chromatography using a HiLoad 26/600 Superdex 75pg column (Cytiva) with PBS buffer. […] Surface plasmon resonance measurements were made using a Biacore T200 (Cytiva) and analyzed using T200 Evaluation Software Version 3.1. Receptor ectodomain proteins were covalently immobilized (∼250 resonance units) on Sensor Chip CM4 BR100534 using the Amine coupling Immobilization Wizard in the Biacore T200 Control Software Version 2.0.2. Running buffer was HBS-EP (10 mM Hepes, 150 mM NaCl, 3 mM EDTA, 0.05% P20 [pH 7.6]; Teknova). Concentration series for each sample were made by serial dilution in running buffer. The samples were injected for 150 sec at a 30-µL/min flow rate, followed by 300 sec of dissociation. The surface was regenerated between samples with 10 mM glycine (pH 1.7).
Fig. S10. Receptor extracellular domain (ECD) binding affinity of peptides. Purified GIPR (left column) and GLP-1R (right column) extracellular domains were immobilized to biosensor […]
mM). […]
and efficacy (% Top) of ligands to induce Gα s -GTPγS binding and cAMP accumulation in HEK293 cells expressing GIPR were determined. The equilibrium affinity (KD) of ligands for the immobilized ectodomain of the GIPR were quantified by surface plasmon resonance. […]
Functional potency (EC50) and efficacy (% Top) of ligands to induce Gα s-GTPγS binding and cAMP accumulation in HEK293 cells expressing GLP-1R were determined. The equilibrium affinity (KD) of ligands for the immobilized ectodomain of the GLP-1R were quantified by surface plasmon resonance. […]
recruitment to the GLP-1R were determined using the NanoBRET approach. The potency (EC50) and efficacy (% Top) for ligands to induce GLP-1R Internalization were determined using diffusion-enhanced resonance energy transfer. […]
relative efficacy for NanoBRET assays. SPR data were analyzed using T200 evaluation software (Cytiva). […] ND, not determined. […]

[3] = molecular target: T3, GLP-1R (Homo sapiens, UniProt P43220); experiment: GRK2 recruitment to the GLP-1R, NanoBRET; assay type: cell-based; design: expressed in transfected cells; host or cells: freestyle HEK cells
Description: After 48 h, transfected cells were incubated in phosphate-buffered saline (PBS) containing 0.1% (wt/vol) bovine casein and varying concentrations of the ligands. […]
The potency (EC50) and efficacy (% Top) for ligands to induce GLP-1R Internalization were
determined using diffusion-enhanced resonance energy transfer.
relative efficacy for NanoBRET assays. SPR data were analyzed using T200 evaluation software (Cytiva). All data are presented as geometric means with SEM and n values
as §1
Target sequence in this assay (P43220 24-463): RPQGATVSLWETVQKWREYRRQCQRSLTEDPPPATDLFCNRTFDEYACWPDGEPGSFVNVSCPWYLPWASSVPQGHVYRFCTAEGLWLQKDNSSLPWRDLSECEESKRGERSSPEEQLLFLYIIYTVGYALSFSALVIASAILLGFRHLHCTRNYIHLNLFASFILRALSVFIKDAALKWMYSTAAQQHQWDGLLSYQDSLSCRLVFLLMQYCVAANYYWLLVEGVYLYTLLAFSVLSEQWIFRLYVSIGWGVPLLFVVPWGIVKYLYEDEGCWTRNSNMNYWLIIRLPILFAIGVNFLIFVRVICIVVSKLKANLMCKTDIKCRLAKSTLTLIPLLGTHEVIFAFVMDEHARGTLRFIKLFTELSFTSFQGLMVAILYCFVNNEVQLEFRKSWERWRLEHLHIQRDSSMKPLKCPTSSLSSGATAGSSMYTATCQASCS
Target sequence in this assay (P25098 whole entry partner): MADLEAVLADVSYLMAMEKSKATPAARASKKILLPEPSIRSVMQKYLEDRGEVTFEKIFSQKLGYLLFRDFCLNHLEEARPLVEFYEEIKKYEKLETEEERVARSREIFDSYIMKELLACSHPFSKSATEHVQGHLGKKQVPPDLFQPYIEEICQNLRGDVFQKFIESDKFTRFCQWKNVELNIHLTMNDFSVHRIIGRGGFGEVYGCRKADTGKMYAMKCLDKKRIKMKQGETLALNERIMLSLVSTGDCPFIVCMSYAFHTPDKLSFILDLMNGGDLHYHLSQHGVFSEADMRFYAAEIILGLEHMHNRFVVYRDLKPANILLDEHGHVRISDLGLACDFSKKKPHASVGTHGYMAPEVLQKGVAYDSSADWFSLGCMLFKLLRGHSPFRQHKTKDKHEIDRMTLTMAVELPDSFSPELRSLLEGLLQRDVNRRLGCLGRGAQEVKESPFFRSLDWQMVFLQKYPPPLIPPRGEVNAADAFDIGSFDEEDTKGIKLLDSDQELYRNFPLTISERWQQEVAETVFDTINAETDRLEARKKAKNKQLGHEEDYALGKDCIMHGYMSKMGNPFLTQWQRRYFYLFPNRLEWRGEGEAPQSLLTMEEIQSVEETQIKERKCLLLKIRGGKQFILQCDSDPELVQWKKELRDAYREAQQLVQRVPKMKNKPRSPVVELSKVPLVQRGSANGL

[4] = molecular target: T3, GLP-1R; experiment: Ligand-induced GLP-1R internalization, SNAP-GLP-1R HEK293 cells; assay type: cell-based
Target sequence in this assay (P43220 24-463): as the sequence (P43220 24-463) above

T2 sequence (P43220 24-145): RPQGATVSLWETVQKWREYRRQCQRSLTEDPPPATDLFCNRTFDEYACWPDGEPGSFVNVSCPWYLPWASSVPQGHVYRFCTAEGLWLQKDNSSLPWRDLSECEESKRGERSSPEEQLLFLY

For `CC[C@H](C)[C@H](NC(=O)[C@H](CC(C)C)NC(=O)[C@H](Cc1c[nH]c2ccccc12)NC(=O)[C@H](CCC(N)=O)NC(=O)[C@@H](NC(=O)[C@H](Cc1ccccc1)NC(=O)[C@H](C)NC(=O)[C@H](CCCCN)NC(=O)[C@H](CCC(N)=O)NC(=O)[C@H](C)NC(=O)[C@@H](NC(=O)[C@H](CCCCN)NC(=O)[C@H](CC(=O)O)NC(=O)[C@H](CC(C)C)NC(=O)C(C)(C)NC(=O)[C@@H](NC(=O)[C@H](CO)NC(=O)[C@H](Cc1ccc(O)cc1)NC(=O)[C@H](CC(=O)O)NC(=O)[C@H](CO)NC(=O)[C@@H](NC(=O)[C@H](Cc1ccccc1)NC(=O)[C@@H](NC(=O)CNC(=O)[C@H](CCC(=O)O)NC(=O)C(C)(C)NC(=O)[C@@H](N)Cc1ccc(O)cc1)[C@@H](C)O)[C@@H](C)O)[C@@H](C)CC)[C@@H](C)CC)C(C)C)C(=O)N[C@@H](C)C(=O)NCC(=O)NCC(=O)N1CCC[C@H]1C(=O)N[C@@H](CO)C(=O)N[C@@H](CO)C(=O)NCC(=O)N[C@@H](C)C(=O)N1CCC[C@H]1C(=O)N1CCC[C@H]1C(=O)N1CCC[C@H]1C(=O)N[C@@H](CO)C(N)=O` [Tzp∆C20], the EC50 ([1]; cAMP accumulation, HEK293 cells expressing GIPR, albumin-free, geometric mean (SEM, n)) was 0.0163 nM, the “GIPR Low Density cAMP Top” value ([1]; efficacy (% Top), normalized to GIP(1-42), (SEM)) was 107 (4) % and the Kd ([2]; GLP-1R SPR KD, equilibrium affinity, immobilized GLP-1R ectodomain, Biacore T200, HBS-EP pH 7.6, (SEM, n)) was 111 nM. For the same compound, the koff ([2]; read-out: GLP-1R ECD kinetic constant Koff) was 0.0254 s⁻¹, the EC50 ([3]; NanoBRET, transfected freestyle HEK cells, PBS with 0.1% casein, geometric mean (SEM, n)) was 1.92 nM and the “GLP-1R GRK2 Recruitment Top” value ([3]; efficacy (% Top), relative to maximal GLP-1, (SEM)) was 39.4 (3.7) %. For the same compound, the EC50 ([4]; diffusion-enhanced resonance energy transfer, SNAP-GLP-1R HEK293 cells, 37 °C, geometric mean (SEM, n)) was 5.47 nM and the “GLP-1R Internalization Top” value ([4]; efficacy (% Top), percent internalization compared to maximal GLP-1, (SEM)) was 90.6 (3.0) %.
